Source: patent US10011573B2, “Human androgen receptor DNA-binding domain (DBD) compounds as therapeutics and methods for their use” (The University of British Columbia, priority 2014, dated 2018)
Read-outs that look alike come from different tables or passages of the source.

Assays:
[1] = molecular target: T1, androgen receptor (AR) (Homo sapiens, UniProt P10275, T878A); assay: eGFP cellular AR transcription assay (LNCaP eGFP cells, LN-ARR2PB-eGFP); details: for inhibition at 3 µM: LNCaP, read-out: % Inhibition (3 μM)
T1 sequence (P10275 1-920 T878A): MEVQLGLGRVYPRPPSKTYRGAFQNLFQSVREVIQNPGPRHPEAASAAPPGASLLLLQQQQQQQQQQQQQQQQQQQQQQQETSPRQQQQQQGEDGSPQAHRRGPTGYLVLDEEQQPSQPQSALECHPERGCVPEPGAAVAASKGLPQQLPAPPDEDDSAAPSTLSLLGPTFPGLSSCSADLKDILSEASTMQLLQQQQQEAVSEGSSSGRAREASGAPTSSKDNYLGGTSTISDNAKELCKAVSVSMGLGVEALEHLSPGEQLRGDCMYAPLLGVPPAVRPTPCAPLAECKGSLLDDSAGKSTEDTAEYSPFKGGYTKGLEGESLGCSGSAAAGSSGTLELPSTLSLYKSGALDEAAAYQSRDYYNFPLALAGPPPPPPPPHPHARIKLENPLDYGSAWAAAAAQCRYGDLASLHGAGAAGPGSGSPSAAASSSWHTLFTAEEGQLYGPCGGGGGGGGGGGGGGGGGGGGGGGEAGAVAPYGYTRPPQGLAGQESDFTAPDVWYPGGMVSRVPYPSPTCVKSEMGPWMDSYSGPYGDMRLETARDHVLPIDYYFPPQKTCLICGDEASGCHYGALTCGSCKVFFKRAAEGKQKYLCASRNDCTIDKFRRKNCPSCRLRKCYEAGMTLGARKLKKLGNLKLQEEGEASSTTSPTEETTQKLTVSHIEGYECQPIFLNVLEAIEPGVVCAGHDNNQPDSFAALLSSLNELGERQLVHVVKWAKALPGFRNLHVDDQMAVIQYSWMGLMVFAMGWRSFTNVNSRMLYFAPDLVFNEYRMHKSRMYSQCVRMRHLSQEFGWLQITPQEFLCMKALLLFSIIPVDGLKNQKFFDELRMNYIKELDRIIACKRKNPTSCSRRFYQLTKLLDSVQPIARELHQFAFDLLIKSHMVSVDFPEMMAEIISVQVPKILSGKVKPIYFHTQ

[2] = system: PSA; assay: Prostate-specific antigen (PSA) assay, secreted PSA from the eGFP assay plates; format: cell-based, human
Method: 3. Prostate-specific antigen (PSA) assay: The evaluation of PSA levels secreted into the media was performed in parallel to the eGFP assay using the same plates. After cells were incubated for 3 days, 150 μl of the media was taken from each well, and added to 150 μl of PBS.

[3] = eGFP IC50 (μM), LNCaP eGFP cells

Compound | inhibition at 3 µM [1] [%] | IC50 ([1]; eGFP IC50 (μM), Series 1) [µM] | IC50 ([2]; Homo sapiens, Series 1) [nM] | IC50 [1, 3] [µM] | IC50 ([2]; Homo sapiens, secreted PSA) [nM] | further results
Fc1ccc(-c2csc(N3CCOCC3)n2)cc1 [Compound 14255] | 44.9 | 0.66 | 410 | – | – | –
Clc1ncn(-c2csc(N3CCOCC3)n2)c1I [Compound 14468, 4-(4-(4-chloro-5-iodo-1H-imidazol-1-yl)thiazol-2-yl)morpholine] | – | 2.44 | 4020 | – | – | –
c1ccc(-c2ccc(N3CCOCC3)s2)cc1 [Compound 14103] | 100 | 0.522 | 511 | – | – | –
c1ccc(-c2csc(N3CCCCC3)n2)cc1 [Compound 14233] | – | 1.02 | 690 | – | – | –
CC(=O)Nc1cccc(NC(=O)c2ccc(C)c(-n3cccc3)c2)c1 [Compound 14010] | – | – | – | 32.5 | 19300 | –
CCC1CN(c2nc3ccccc3s2)CCO1 (stereo not shown) [Compound 14392] | 55.5 | – | – | 7.07 | 10400 | –
Fc1ccc(-c2csc(N3CCOCC3)n2)cc1F [Compound 14264] | 115 | 0.24 | 110 | – | – | –
c1ccc2nc(-c3ccncc3)ccc2c1 [Compound 14320] | 62 | – | – | 4.2 | 2260 | –
FC(F)(F)C1CN(c2nc(-c3ccccc3)cs2)CCO1 (stereo not shown) [Compound 14250] | – | – | – | – | – | IC50 ([1]; read-out: eGFP IC50): 1.64 µM; IC50 ([2]; Series 1): 160 nM
Clc1ccc(-c2csc(N3CCOCC3)n2)c(Cl)c1 [Compound 14263] | – | – | – | – | – | IC50 ([1]; read-out: eGFP IC50): 1.66 µM; IC50 ([2]; Series 1): 1320 nM
c1csc(-c2nc(-c3c[nH]c4ccccc34)cs2)c1 [Compound 14481] | 80.5 | 2.18 | 1410 | – | – | –
c1ccc(-c2csc(-c3ccncc3)n2)cc1 [Compound 14352] | – | – | – | – | – | IC50 ([1]; read-out: eGFP IC50): 1.19 µM; IC50 ([2]; Series 1): 630 nM
Ic1ncn(-c2csc(N3CCOCC3)n2)c1I [Compound 14464, 4-(4-(4,5-diiodo-1H-imidazol-1-yl)thiazol-2-yl)morpholine] | – | 1.5 | 1810 | – | – | –
N#Cc1ccc(-c2nc3ccccc3s2)cc1 [Compound 14489] | 82.5 | – | – | 1.79 | 1060 | –
COc1c(-c2csc(N3CCOCC3)n2)ccc(F)c1F [Compound 14370] | 107 | 0.19 | 250 | – | – | anti-AR activity (AR transcriptional inhibition) in words ([1]; LNCaP (T877A AR)): improved activities
Oc1ccc2nc(N3CCOCC3)sc2c1 [Compound 14378] | 57.5 | – | – | 7.41 | 8080 | –
Brc1cn(-c2csc(N3CCOCC3)n2)cn1 [Compound 14447, 4-(4-(4-bromo-1H-imidazol-1-yl)thiazol-2-yl)morpholine] | – | 2.1 | 1740 | – | – | –
COc1cc(F)ccc1-c1csc(N2CCOCC2)n1 [Compound 14367] | 103 | 0.3 | 230 | – | – | –
CCc1sc(N2CCOCC2)nc1-c1ccccc1 [Compound 14285] | – | – | – | – | – | % Inhibition (3 μM) [1]: 52.34%; IC50 ([1]; read-out: eGFP IC50): 5.85 µM; IC50 ([2]; Series 1): 8430 nM
c1ccc2nc(N3CCOCC3)ccc2c1 [Compound 14401] | 76 | – | – | 0.85 | 690 | –
Oc1c(-c2csc(N3CCOCC3)n2)ccc(F)c1F [Compound 14371] | 98.9 | 0.8 | 700 | – | – | –
Nc1ccccc1-c1nc(-c2cccnc2)cs1 [Compound 14463] | – | 2.3 | 2120 | – | – | –
c1ccc2c(-c3nc(-c4ccncc4)cs3)c[nH]c2c1 [Compound 14150] | 133 | 1.44 | 1290 | – | – | –
Fc1ccc(-c2csc(-c3ccncc3)n2)cc1 [Compound 14315] | 83.3 | 1.19 | 632 | – | – | –
Cc1ccc2sc(N3CCOCC3)nc2c1C [Compound 14332] | 91.7 | – | – | 0.068 | 58 | –
Oc1cccc2ccc(N3CCOCC3)nc12 [Compound 14400] | 79 | – | – | 0.46 | 380 | –
Nc1nc(-c2ccc3ccccc3c2)cs1 [Compound 14204] | 67.2 | – | – | 9.16 | 10600 | –
Fc1ccc2sc(N3CCOCC3)nc2c1F [Compound 14409] | 86 | – | – | 0.36 | 340 | –
CNc1nc(-c2ccc3ccccc3c2)cs1 [Compound 14203] | 91.5 | – | – | 3.17 | 3910 | –
